# Laboratory results published in article PMC4138601 (Analytical and bioanalytical chemistry, 2012).
# Legend:
# [1] = molecular target: T1, Sphingomyelinase from human placenta (human L-ASM) (Homo sapiens, UniProt P17405); experiment: SMase assay with natural substrate sphingomyelin; assay type: biochemical; settings: maximal inhibition; for Maximal resp., natural substrate (pH 5.0): pH 5.0 buffer; for Maximal resp., natural substrate (pH 6.5): pH 6.5 buffer
# T1 sequence (P17405 47-631): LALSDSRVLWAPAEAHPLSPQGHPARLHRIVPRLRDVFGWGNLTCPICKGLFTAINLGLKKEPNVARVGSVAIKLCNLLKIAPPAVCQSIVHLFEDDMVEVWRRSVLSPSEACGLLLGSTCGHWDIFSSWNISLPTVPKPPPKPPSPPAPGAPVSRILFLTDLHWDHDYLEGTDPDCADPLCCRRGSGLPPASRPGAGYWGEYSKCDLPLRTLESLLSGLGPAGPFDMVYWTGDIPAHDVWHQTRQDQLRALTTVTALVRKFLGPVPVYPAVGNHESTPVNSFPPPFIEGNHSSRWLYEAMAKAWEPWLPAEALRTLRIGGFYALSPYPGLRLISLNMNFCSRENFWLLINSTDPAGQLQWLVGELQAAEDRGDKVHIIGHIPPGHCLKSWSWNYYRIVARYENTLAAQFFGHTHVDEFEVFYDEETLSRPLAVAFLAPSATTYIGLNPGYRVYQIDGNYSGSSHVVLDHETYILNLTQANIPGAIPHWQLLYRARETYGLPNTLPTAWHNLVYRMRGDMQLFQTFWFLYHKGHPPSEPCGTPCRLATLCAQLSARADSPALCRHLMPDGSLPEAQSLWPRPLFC
# [2] = molecular target: T1, Sphingomyelinase from human placenta (human L-ASM); experiment: SMase assay using HMU-PC profluorescence substrate; assay type: biochemical; settings: maximal inhibition, artificial substrate HMU-PC
"Maximal resp., natural substrate (pH 5.0) [1] [%]","Maximal resp., natural substrate (pH 6.5) [1] [%]","Maximal resp., HMU-PC substrate (pH 5.0) [2] [%]",SMILES
81.7,82.7,6.2,O=c1c(O)c(-c2cccs2)oc2ccccc12 [MLS000097140]
103.2,104.4,99.1,S=c1nc(C2CC2)[nH]c2ccccc12 [MLS000097294]
79.1,84.8,82.1,COC(=O)C1=C(C)N(Cc2ccc(C)cc2)C(=O)/C1=C\c1ccc(O)c(OC)c1 [MLS000574110]
72.0,77.2,93.4,O=S(=O)(Nc1ccc(N=Nc2ccc(O)c3ccccc23)cc1)c1ccccc1 [MLS000707545]
31.1,61.6,99.2,O=C1CC(c2ccccc2)CC(=O)C1CS(=O)(=O)c1ccccc1 (stereo not drawn) [MLS000720877]
43.4,71.2,79.0,CCS(=O)(=O)C1=NN2C(=N)/C(=C\c3ccc(OC(=O)c4ccco4)cc3)C(=O)N=C2S1 [MLS000950682]
97.8,100.7,15.8,Clc1ccc(SCCOCCN2CCCCCC2)cc1.O=C(O)C(=O)O [MLS001164567]
9.1,26.8,51.8,COc1cc(C(=O)Nc2scc(-c3ccc(Br)cc3)c2C(=O)O)cc(OC)c1OC [MLS001164606]
0.8,8.6,31.4,COc1ccc(C2=NN(C(=O)COC(=O)c3ccc(S(C)(=O)=O)c([N+](=O)[O-])c3)C(c3ccco3)C2)cc1 (stereo not drawn) [MLS002248315]
